This note sets out measurements from ChEMBL document CHEMBL4043262, “Plasma-induced dimerization of phloridzin as a new class of anti-adipogenic agents” (Bioorg Med Chem Lett, 2017).

Data set [1] addresses T1, Pancreatic triacylglycerol lipase (Sus scrofa, UniProt P00591).
T1 sequence (P00591 whole entry): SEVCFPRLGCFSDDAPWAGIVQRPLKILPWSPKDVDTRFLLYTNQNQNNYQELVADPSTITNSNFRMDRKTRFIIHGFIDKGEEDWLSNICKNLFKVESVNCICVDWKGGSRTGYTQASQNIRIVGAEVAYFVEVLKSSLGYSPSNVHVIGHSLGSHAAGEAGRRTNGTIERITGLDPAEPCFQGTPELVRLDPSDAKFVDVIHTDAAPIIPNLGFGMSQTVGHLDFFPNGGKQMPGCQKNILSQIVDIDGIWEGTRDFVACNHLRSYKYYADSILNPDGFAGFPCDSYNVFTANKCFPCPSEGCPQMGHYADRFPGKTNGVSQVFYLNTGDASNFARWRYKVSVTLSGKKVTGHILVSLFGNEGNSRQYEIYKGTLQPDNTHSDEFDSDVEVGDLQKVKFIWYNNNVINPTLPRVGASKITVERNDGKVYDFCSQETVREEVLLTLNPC
Put plainly: Inhibition of porcine pancreatic lipase using p-nitrophenyl butyrate as substrate pretreated for 15 mins followed by substrate addition measured after 15 mins by spectrophotometric method.

In data set [2] the test system is 3T3-L1. As to the kind of experiment: Cytotoxicity against mouse 3T3L1 cells up to 48 hrs by MTT assay. Type of data set: cell-based. The conditions noted are these: 3t3-l1, 48 h.
In data set [3] the test system is 3T3-L1. As to the kind of experiment: Anti-adipogenic activity in mouse 3T3L1 cells assessed as reduction in lipid accumulation at 100 uM administered for 8 days measured post last dose by Oil Red O staining based assay relative to control. Also on record: scale not given: the % may be the effect or the level left. Type of data set: functional.
For data set [4], the system named is 3T3-L1. Put plainly: Anti-adipogenic activity in mouse 3T3L1 cells assessed as reduction in lipid accumulation at 50 uM administered for 8 days measured post last dose by Oil Red O staining based assay relative to control. It counts as functional. Also on record: scale not given: the % may be the effect or the level left.
For data set [5], the system named is 3T3-L1. As to the kind of experiment: Anti-adipogenic activity in mouse 3T3L1 cells assessed as reduction in lipid accumulation at 25 uM administered for 8 days measured post last dose by Oil Red O staining based assay relative to control. It counts as functional. Also noted: scale not given: the % may be the effect or the level left.
Data set [6] deals with T1, Pancreatic triacylglycerol lipase. Put plainly: Inhibition of porcine pancreatic lipase using p-nitrophenyl butyrate as substrate pretreated for 15 mins followed by substrate addition measured after 15 mins in presence of plasma by spectrophotometric method.

Usually IC50 stands for the point on the concentration scale where inhibition reaches its midpoint. Turning to `O=C(CCc1ccc(O)cc1)c1c(O[C@@H]2O[C@H](CO)[C@@H](O)[C@H](O)[C@H]2O)cc(O)c(Cc2c(O)cc(O[C@@H]3O[C@H](CO)[C@@H](O)[C@H](O)[C@H]3O)c(C(=O)CCc3ccc(O)cc3)c2O)c1O`, the IC50 in data set [1] was determined as 257 µM. Also, the Activity result in the data set on 3T3-L1 [2] is reported as “Non-Toxic”.

With `O=C(CCc1ccc(O)cc1)c1c(O)cc(O)c(Cc2c(O)cc(O[C@@H]3O[C@H](CO)[C@@H](O)[C@H](O)[C@H]3O)c(C(=O)CCc3ccc(O)cc3)c2O)c1O`, the IC50 in data set [1] turned out to be 14.7 µM. Moreover, the Activity result with 3T3-L1 [2] was “Non-Toxic”.

Turning to `O=C(CCc1ccc(O)cc1)c1c(O)cc(O)cc1O` [PHLORETIN], the IC50 in data set [1] came to 50.4 µM. In addition, in the data set on 3T3-L1 [2], the Activity entry is given as “Non-Toxic”.

Consider `O=C(CCc1ccc(O)cc1)c1c(O)cc(O)c(Cc2c(O)cc(O)c(C(=O)CCc3ccc(O)cc3)c2O)c1O`, for which the IC50 in data set [1] turned out to be 5.2 µM. Moreover, the Activity result with 3T3-L1 [2] is listed as “Non-Toxic”; with 3T3-L1 [3], 36.5%; in the data set with 3T3-L1 [4], 45.7%; in the data set with 3T3-L1 [5], 60.3%.

As for `O=C(CCc1ccc(O)cc1)c1c(O)cc(O)cc1O[C@@H]1O[C@H](CO)[C@@H](O)[C@H](O)[C@H]1O` [PHLORIZIN], the IC50 in data set [6] is 68.3 µM; in data set [1], > 300 µM. For the same molecule, in the data set with 3T3-L1 [2], the Activity entry is given as “Non-Toxic”.
